ChEMBL document CHEMBL5576093, “Design, synthesis and evaluation of bioactivity of peptidomimetics based on chloroalkene dipeptide isosteres” (Bioorg Med Chem, 2024)

How the values were obtained:
[1] = molecular target: C-X-C chemokine receptor type 4 (Homo sapiens, UniProt P61073); experiment: Antagonist activity at CXCR4 (unknown origin); assay type: functional
[2] = molecular target: Amyloid-beta precursor protein (Homo sapiens) (UniProt P05067); experiment: Inhibition of amyloid-beta (1 to 42 residues) (unknown origin) aggregation at 10 uM incubated for 6 hrs by ThT fluorescence based spectrofluorimetric analysis relative to control
Amyloid-beta precursor protein (Homo sapiens), sequence (P05067 whole entry, the tested form may be a part): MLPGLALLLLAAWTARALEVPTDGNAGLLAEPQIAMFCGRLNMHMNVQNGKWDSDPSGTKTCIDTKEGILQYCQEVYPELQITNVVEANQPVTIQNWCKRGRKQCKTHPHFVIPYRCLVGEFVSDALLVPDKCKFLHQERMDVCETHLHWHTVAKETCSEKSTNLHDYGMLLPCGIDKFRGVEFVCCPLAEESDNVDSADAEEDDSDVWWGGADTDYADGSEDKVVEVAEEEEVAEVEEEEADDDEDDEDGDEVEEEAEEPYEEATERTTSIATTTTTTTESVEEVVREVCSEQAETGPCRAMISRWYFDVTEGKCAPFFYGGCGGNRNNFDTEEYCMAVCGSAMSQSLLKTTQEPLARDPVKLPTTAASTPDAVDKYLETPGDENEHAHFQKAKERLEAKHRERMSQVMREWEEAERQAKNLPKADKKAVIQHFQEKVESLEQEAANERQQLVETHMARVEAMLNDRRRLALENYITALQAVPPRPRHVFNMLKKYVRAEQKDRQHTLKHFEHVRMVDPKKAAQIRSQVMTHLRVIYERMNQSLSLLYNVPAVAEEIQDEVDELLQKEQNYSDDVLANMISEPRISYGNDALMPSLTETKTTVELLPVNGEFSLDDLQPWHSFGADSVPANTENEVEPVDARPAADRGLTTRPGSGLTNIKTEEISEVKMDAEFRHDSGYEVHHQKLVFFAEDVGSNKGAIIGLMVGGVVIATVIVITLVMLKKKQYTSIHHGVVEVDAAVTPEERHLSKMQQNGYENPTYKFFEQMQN

[3] = molecular target: Amyloid-beta precursor protein (Homo sapiens) (UniProt P05067); experiment: Inhibition of amyloid-beta (1 to 42 residues) (unknown origin) aggregation at 20 uM incubated for 6 hrs by ThT fluorescence based spectrofluorimetric analysis relative to control

C-X-C chemokine receptor type 4, sequence (P61073 whole entry, the tested form may be a part): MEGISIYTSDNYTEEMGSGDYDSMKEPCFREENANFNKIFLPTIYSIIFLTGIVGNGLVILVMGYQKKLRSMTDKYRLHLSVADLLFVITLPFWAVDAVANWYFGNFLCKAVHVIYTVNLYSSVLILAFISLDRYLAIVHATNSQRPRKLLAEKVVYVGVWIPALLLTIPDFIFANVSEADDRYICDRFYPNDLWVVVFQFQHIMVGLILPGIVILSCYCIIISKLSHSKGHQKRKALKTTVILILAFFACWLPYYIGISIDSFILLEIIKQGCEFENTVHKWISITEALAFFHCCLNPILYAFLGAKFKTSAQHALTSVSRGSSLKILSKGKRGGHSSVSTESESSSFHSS

Row | EC50 [1] | inhibition [2] | inhibition [3] | Compound
1 | 1460 nM | – | – | N=C(N)NCCC[C@H]1/C=C/[C@@H](CCCNC(=N)N)C(=O)N[C@@H](Cc2ccc3ccccc3c2)C(=O)NCC(=O)N[C@H](Cc2ccc(O)cc2)C(=O)N1
2 | – | 77.9% | 20.3% | CC(C)C[C@@H]1NC(=O)[C@@H](CCCCN)NC(=O)[C@@H](Cc2ccccc2)NC(=O)[C@H](Cc2ccccc2)NC(=O)[C@@H](C(C)C)NC1=O
3 | – | 30.1% | 24.6% | CC(C)C[C@H]1NC(=O)[C@H](CCCCN)NC(=O)[C@H](Cc2ccccc2)NC(=O)[C@@H](Cc2ccccc2)N/C=C(\Cl)C(=O)[C@H](C(C)C)NC1=O
4 | – | – | 36% | O=c1c(O)c(-c2ccc(O)cc2O)oc2cc(O)cc(O)c12
5 | 1780 nM | – | – | N=C(N)NCCC[C@@H]1NC(=O)[C@@H](Cc2ccc(O)cc2)NC(=O)CNC(=O)[C@H](Cc2ccc3ccccc3c2)NC(=O)[C@H](CCCNC(=N)N)/C=C/1F
6 | – | – | 79.6% | CC(C)C[C@H](NC(=O)[C@@H](N)CCCCN)C(=O)N[C@H](C(=O)/C(Cl)=C/N[C@@H](Cc1ccccc1)C(=O)N[C@@H](Cc1ccccc1)C(=O)O)C(C)C
7 | – | – | 90.2% | CC(C)C[C@H](NC(=O)[C@@H](N)CCCCN)C(=O)N[C@H](C(=O)N[C@@H](Cc1ccccc1)C(=O)N[C@@H](Cc1ccccc1)C(=O)O)C(C)C
